{
  "source": "patent US20230144898A1",
  "about": "“INHIBITOR OF ASPARTIC ACID SYNTHESIS IN TUMOR CELLS, INHIBITOR OF SPHEROID FORMATION OF TUMOR CELLS, INHIBITOR OF TUMOR CELL METASTASIS, ACTIVITY ENHANCER OF GLYCOLYTIC INHIBITOR, AND PHARMACEUTICAL COMPOSITION FOR SUPPRESSING AND/OR PREVENTING TUMOR METASTASIS” (CCI HOLDINGS INC., priority 2020, published 2023)",
  "key": {"[1]": {"tested_on": "CMeCl cells (canine malignant melanoma cells)", "assay": "Proliferation inhibition, CMeC1 cells, trypan blue viable cell count (Test Example 1)", "format": "cell-based", "settings": "for IC50: Cell line: CMeC1, incubated for 72 hours", "protocol": "Four compounds of petasin, S-petasin, neopetasin and neo-S-petasin were evaluated for the inhibitory effect on proliferation of mouse or canine malignant melanoma cells by the following method.\nB16F10 cells (mouse malignant melanoma cells) were obtained from JCRB Cell Bank (National Institutes of Biomedical Innovation, Health and Nutrition). In addition, CMeCl cells (canine malignant melanoma cells) were obtained from Veterinary Surgery Laboratory, Graduate School of Agricultural and Life Sciences, the University of Tokyo. Furthermore, A2058 cells (human malignant melanoma cells) were obtained from JCRB Cell Bank (National Institutes of Biomedical Innovation, Health and Nutrition). B16F10 cells were cultured in a 37° C. incubator (air/CO2 = 95/5 (v/v)) using Dulbecco’s modified Eagle’s medium (DMEM), CMeCl cells in RPMI (Roswell Park Memorial Institute) medium (RPMI1640), and A2058 cells in E-MEM medium.\nFirst, CMeCl cells (canine malignant melanoma cells) were seeded in a six-well plate so as to be 0.5×10^5 cells/mL, and after 24 hours therefrom, each of the above four kinds of compounds (final concentration: 0.01 to 100 µg/mL) was suspended in the medium at a ratio of 0.1% and incubated for 72 hours. 72 hours after the start of culture, the number of viable cells was measured by trypan blue staining. At this time, viable cells (cell viability%) were calculated as the relative number of cells when the number of viable cells in a negative control section (DMSO treatment) was taken as 100%. Then, IC50 was calculated using a GraphPad Prism software system (GraphPad Software Inc.)."}, "B16F10 cells [2]": {"tested_on": "B16F10 cells", "assay": "Spheroid formation assay (Test Example 4)", "format": "cell-based, mouse", "settings": "0.3 µM or 3 µM; 24, 48 and 72 hours", "protocol": "Specifically, B16F10 cells were seeded in an amount of 0.3×10^5 cells/mL in a 96-well plate for spheroid formation in an amount of 100 µL each. Thereupon, neopetasin at a concentration of 0.3 µM or 3 µM was added to the medium. Cells were photographed using a phase-contrast microscope after 24 hours, 48 hours and 72 hours of adding neopetasin. Moreover, as a negative control section, DMSO was administered to perform the same experiment."}, "B16F10 cells [3]": {"tested_on": "B16F10 cells", "assay": "Metabolomic analysis (amino acids) by CE-TOFMS (Test Example 7)", "format": "cell-based, mouse", "protocol": "The metabolomic analysis (amino acids) of neopetasin-treated B16F10 cells was performed. Specifically, for B16F10 cells treated with neopetasin (3 µM) through the same method as in Test Example 1, the cells were recovered at each time point of 9 hours and 48 hours after the treatment, and amino acid concentration was measured using a capillary electrophoresis-time of flight mass spectrometer (CE-TOFMS). Furthermore, the amino acid concentration in the sample was measured according to an internal standard calibration method, and the internal standard concentration in the sample was calculated as 25 µM. Moreover, for the analysis, Master Hands ver. 2.17.3.18 (Institute for Advanced Biosciences, Keio University) was used."}, "[4]": {"tested_on": "mitochondria in B16F10 cells", "assay": "MitoTracker Orange staining of mitochondria (Test Example 8)", "format": "cell-based, mouse", "protocol": "In order to determine the action mechanism of neopetasin on inhibiting the aspartic acid synthesis in tumor cells, the influence of neopetasin on mitochondria in B16F10 cells was evaluated. Specifically, B16F10 cells treated with neopetasin (3 µM) for 48 hours through the same method as in Test Example 1 were stained using MitoTracker Orange (Thermo Fisher Scientific, MA, USA), which labels mitochondria depending on membrane potential. In addition, as a positive control section, in place of neopetasin, metformin known as a mitochondrial respiratory chain Complex I inhibitor (mitochondrial toxin) was used at a concentration of 5000 µM to perform the same experiment. Subsequently, the cells stained as described above were photographed with a fluorescence microscope (FIG. 9A). In addition, the relationship between fluorescence intensity of the cells and the distribution of the number of cells was measured using an image cytometer (Tali, Thermo Fisher Scientific, MA, USA) (FIG. 9B)."}, "A2058 cells": {"tested_on": "A2058 cells", "assay": "Western blotting of cancer-related proteins, A2058 cells (Test Example 10)", "format": "cell-based, human", "settings": "3 µM, 56 hours"}, "[5]": {"tested_on": "mouse-derived metastatic breast cancer cells Jyg-MC(B)", "assay": "Mouse natural metastasis model (Test Example 12)", "format": "in vivo", "description": "In general, the metastasis process follows the course of primary tumor formation, invasion of blood vessels and lymphatic vessels, and fixation and proliferation to lung. Here, the model prepared in Test Example 2 verifies only kinetics of tumor cells after entry into the blood vessel, and the metastasis phenomenon occurring in the actual clinical example also includes other processes in addition to invasion of blood vessels and lymphatic vessels from the primary tumor. Thereupon, in this test example, a subcutaneous tumor (a primary tumor) was generated in a mouse, and a model in which the tumor cells metastasized to lung following all metastasis processes (a natural metastasis model) was prepared.\nSpecifically, to start with, in order to prepare a natural metastasis model, a nude mouse (BALBc nu/nu, female, 4 weeks old, purchased from Japan SLC) was subcutaneously inoculated with mouse-derived metastatic breast cancer cells Jyg-MC(B). After 24 days of incubation, neopetasin (NP) was administered intraperitoneally at a dose of 50 mg/kg and treated a total of 6 times for 16 days (inoculation at 0, 2, 4, 6, 10, 14 days, respectively). Note that treatment procedure at this time is illustrated in FIG. 13."}, "B16F10 cells [6]": {"tested_on": "B16F10 cells", "assay": "Lung metastasis of cells pre-treated in vitro, tail vein injection (Test Example 13)", "format": "in vivo, mouse", "settings": "cells reacted with 3 µM in vitro; two-week non-treatment period", "protocol": "In this test example, neopetasin (NP) was previously reacted with B16F10 cells that are derived from the mouse melanoma at a concentration of 3 µM in vitro. Thereafter, the uniform numbers of living cells were injected into the tail vein of the mice, and thereafter, no treatment was performed, and the number of metastasis lesions formed in the lung after a two-week non-treatment period was counted. The protocol of the present test example is shown in FIG. 19, and the graph showing the results of the present test example and the observation photograph of the extracted lung are shown in FIG. 20. […] Here, if neopetasin (NP) were reducing the number of lung metastasis lesions as part of the proliferation inhibitory effect on tumor cells (in other words, lung metastasis is suppressed as part of the proliferation inhibitory effect), equivalent formation of metastasis lesions should be observed in both neopetasin (NP)-administered group and the control (DMSO-administered group) during the non-treatment period in which the proliferation inhibitory effect is not exerted. However, in reality, as described above, formation of a new metastatic lesion has not been confirmed even after the non-treatment period in neopetasin (NP)-administered group."}, "[7]": {"assay": "Cell proliferation inhibition assay (Test Example 14)", "format": "cell-based", "settings": "compared with petasin, S-petasin and S-neopetasin", "protocol": "In this test example, IC50 values in the cell proliferation inhibition assay for petasin, neopetasin, S-petasin and S-neopetasin were measured in addition to the Petasites japonicus extract (whole extract)."}, "[8]": {"settings": "50 mg/kg intraperitoneally, 6 times for 16 days"}},
  "note": "Read-outs that look alike come from different tables or passages of the source.",
  "data": [
    {"smiles": "C=C(C)[C@H]1C[C@@]2(C)C(=CC1=O)CC[C@@H](OC(=O)/C(C)=C\\C)[C@@H]2C", "note": "[Neopetasin, neopetasin]", "values": [
      {"measurement": "inhibitory effect on proliferation of CMeCl cells", "setting": "[1]; 72 hours", "result": "showed the strongest activity"},
      {"measurement": "IC50", "setting": "[1]; Canis lupus familiaris, 72 h, read-out: IC50", "result": 990, "unit": "nM"},
      {"measurement": "IC50", "setting": "[1]; Canis lupus familiaris, 72 h, read-out: IC50 (µg/mL)", "result": 0.314, "unit": "µg/mL"},
      {"measurement": "IC50", "setting": "[1]; read-out: IC50", "result": 991, "unit": "nM"},
      {"measurement": "spheroid formation", "setting": "B16F10 cells [2]", "result": "could not form spheroids"},
      {"measurement": "concentration of aspartic acid (Asp) in the sample", "setting": "B16F10 cells [3]; 3 µM, after 9 hours", "result": "strongly reduced"},
      {"measurement": "aspartic acid synthesis, remaining fraction", "setting": "B16F10 cells [3]; summary statement", "result": "⅒"},
      {"measurement": "activity relative to metformin", "setting": "[4]; neopetasin 3 µM vs metformin 5000 µM", "result": "≥ 1000", "unit": "times"},
      {"measurement": "MitoTracker Orange fluorescence intensity", "setting": "[4]; neopetasin 3 µM, metformin 5000 µM, 48 hours", "result": "enhanced fluorescence intensity"},
      {"measurement": "expression of cancer-related molecules", "setting": "A2058 cells", "result": "inhibit a wide range of cancer-related molecules"},
      {"measurement": "lung metastasis lesions", "setting": "[5]; [8]", "result": "significant decrease in lung metastasis lesions"},
      {"measurement": "lymph node metastasis (weight of the axillary lymph node)", "setting": "[5]; [8]", "result": "exhibits an inhibitory effect on lymph node metastasis"},
      {"measurement": "degree and weight of lymph node swelling", "setting": "[5]; excluding examples without lymph node swelling", "result": "decreased"},
      {"measurement": "formation of metastasis lesions in lung", "setting": "B16F10 cells [6]", "result": "formation of metastasis lesions was not observed"},
      {"measurement": "cell proliferation inhibition activity (IC50 comparison)", "setting": "[7]", "result": "superior cell proliferation inhibition activity to the other three compounds"}
    ]}
  ]
}
